Data taken from patent US20050070510A1, “Substituted tetracycline compounds as synergistic antifungal agents” (Paratek Pharmaceuticals, Inc., priority 2001, published 2005).

What follows are molecules tested on COS-1 cells (assay: In vitro mammalian cytotoxicity assay (Resazurin)).

Structure (SMILES) | In Vitro Cytotoxicity
CCCCc1ccc(-c2cc(N(C)C)c3c(c2O)C(=O)C2=C(O)[C@]4(C#N)C(=O)C(C(N)=O)=C(O)[C@@H](N(C)C)[C@]4(N)C[C@]2(N)C3)cc1 [LY] | ** (toxicities less than 25 μg/mL are represented by **)
COc1cccc(C#Cc2cc(N(C)C)c3c(c2O)C(=O)C2=C(O)[C@]4(C#N)C(=O)C(C(N)=O)=C(O)[C@@H](N(C)C)[C@]4(N)C[C@]2(N)C3)c1 [JF] | ** (toxicities less than 25 μg/mL are represented by **)
CN(C)[C@@H]1C(O)=C(C(N)=O)C(=O)[C@@]2(C#N)C(O)=C3C(=O)c4c(O)ccc(-c5ccc(C(=O)O)c6ccccc56)c4C[C@@]3(N)C[C@@]12N [NM] | ** (toxicities less than 25 μg/mL are represented by **)
CCCCCc1cc(N(C)C)c2c(c1O)C(=O)C1=C(O)[C@]3(C#N)C(=O)C(C(N)=O)=C(O)[C@@H](N(C)C)[C@]3(N)C[C@]1(N)C2 [KW] | ** (toxicities less than 25 μg/mL are represented by **)
Cc1csc(-c2ccc(O)c3c2C[C@@]2(N)C[C@@]4(N)[C@H](N(C)C)C(O)=C(C(N)=O)C(=O)[C@@]4(C#N)C(O)=C2C3=O)c1 [GN] | ** (toxicities less than 25 μg/mL are represented by **)
CN(C)[C@@H]1C(O)=C(C(N)=O)C(=O)[C@@]2(C#N)C(O)=C3C(=O)c4c(O)ccc(C(=O)Cc5ccccc5)c4C[C@@]3(N)C[C@@]12N [MB] | * (toxicities greater than >25 μg/ml are represented by *)
CN(C)c1cc(-c2cccc(C(N)=O)c2)c(O)c2c1C[C@@]1(N)C[C@@]3(N)[C@H](N(C)C)C(O)=C(C(N)=O)C(=O)[C@@]3(C#N)C(O)=C1C2=O [EU] | ** (toxicities less than 25 μg/mL are represented by **)
CC(C)CC(Cc1ccc(O)c2c1C[C@@]1(N)C[C@@]3(N)[C@H](N(C)C)C(O)=C(C(N)=O)C(=O)[C@@]3(C#N)C(O)=C1C2=O)CC(C)C [RN] | ** (toxicities less than 25 μg/mL are represented by **)
CC(C)COC(=O)Nc1cc(N(C)C)c2c(c1O)C(=O)C1=C(O)[C@]3(C#N)C(=O)C(C(N)=O)=C(O)[C@@H](N(C)C)[C@]3(N)C[C@]1(N)C2 [KQ] | ** (toxicities less than 25 μg/mL are represented by **)
CN(C)c1cc(CCc2ccc(F)cc2)c(O)c2c1C[C@@]1(N)C[C@@]3(N)[C@H](N(C)C)C(O)=C(C(N)=O)C(=O)[C@@]3(C#N)C(O)=C1C2=O [KF] | ** (toxicities less than 25 μg/mL are represented by **)
CN(C)[C@@H]1C(O)=C(C(N)=O)C(=O)[C@@]2(C#N)C(O)=C3C(=O)c4c(O)ccc(-c5cc(F)cc(F)c5)c4C[C@@]3(N)C[C@@]12N [PM] | ** (toxicities less than 25 μg/mL are represented by **)
Cc1ccc(S(=O)(=O)NC(=O)C#Cc2cc(N(C)C)c3c(c2O)C(=O)C2=C(O)[C@]4(C#N)C(=O)C(C(N)=O)=C(O)[C@@H](N(C)C)[C@]4(N)C[C@]2(N)C3)cc1 [JJ] | * (toxicities greater than >25 μg/ml are represented by *)
COc1ccc(Cl)cc1-c1ccc(O)c2c1C[C@@]1(N)C[C@@]3(N)[C@H](N(C)C)C(O)=C(C(N)=O)C(=O)[C@@]3(C#N)C(O)=C1C2=O [GL] | ** (toxicities less than 25 μg/mL are represented by **)
CN(C)[C@@H]1C(O)=C(C(N)=O)C(=O)[C@@]2(C#N)C(O)=C3C(=O)c4c(O)ccc(-c5ccc(CNCc6ccccc6)cc5)c4C[C@@]3(N)C[C@@]12N [HP] | ** (toxicities less than 25 μg/mL are represented by **)
CCCCC#Cc1cc(N(C)C)c2c(c1O)C(=O)C1=C(O)[C@]3(C#N)C(=O)C(C(N)=O)=C(O)[C@@H](N(C)C)[C@]3(N)C[C@]1(N)C2 [LB] | ** (toxicities less than 25 μg/mL are represented by **)
CN(C)c1cc(NCc2ccc([N+](=O)O)o2)c(O)c2c1C[C@@]1(N)C[C@@]3(N)[C@H](N(C)C)C(O)=C(C(N)=O)C(=O)[C@@]3(C#N)C(O)=C1C2=O [UH] | ** (toxicities less than 25 μg/mL are represented by **)
CN(C)[C@@H]1C(O)=C(C(N)=O)C(=O)[C@@]2(C#N)C(O)=C3C(=O)c4c(O)ccc(-c5ccc(Cl)cc5)c4C[C@@]3(N)C[C@@]12N [DM] | ** (toxicities less than 25 μg/mL are represented by **)
Cc1sc(Nc2ccc3c(c2O)C(=O)C2=C(O)[C@]4(C#N)C(=O)C(C(N)=O)=C(O)[C@@H](N(C)C)[C@]4(N)[C@@H](O)[C@]2(N)[C@H]3O)nc1-c1ccccc1 [DW] | ** (toxicities less than 25 μg/mL are represented by **)
CCCC(C)(C)NC(=O)C1=C(O)[C@@H](N(C)C)[C@]2(N)[C@@H](O)[C@@]3(N)C(=C(O)[C@]2(C#N)C1=O)C(=O)c1c(O)cccc1[C@@H]3N [BD] | ** (toxicities less than 25 μg/mL are represented by **)
CN(C)[C@@H]1C(O)=C(C(N)=O)C(=O)[C@@]2(C#N)C(O)=C3C(=O)c4c(O)ccc(C#CC5=CCCCC5)c4C[C@@]3(N)C[C@@]12N [GF] | ** (toxicities less than 25 μg/mL are represented by **)
CCOc1ccc(-c2ccc(O)c3c2C[C@@]2(N)C[C@@]4(N)[C@H](N(C)C)C(O)=C(C(N)=O)C(=O)[C@@]4(C#N)C(O)=C2C3=O)cc1 [FT] | ** (toxicities less than 25 μg/mL are represented by **)

Structure (SMILES) | In Vitro Cytotoxicity
CN(C)[C@@H]1C(O)=C(C(N)=O)C(=O)[C@@]2(C#N)C(O)=C3C(=O)c4c(O)ccc(-c5cc6ccccc6o5)c4C[C@@]3(N)C[C@@]12N [NW] | ** (toxicities less than 25 μg/mL are represented by **)
CCOC(=O)Nc1cc(N(C)C)c2c(c1O)C(=O)C1=C(O)[C@]3(C#N)C(=O)C(C(N)=O)=C(O)[C@@H](N(C)C)[C@]3(N)C[C@]1(N)C2 [KH] | ** (toxicities less than 25 μg/mL are represented by **)
Cc1ccc(C#Cc2ccc(O)c3c2C[C@@]2(N)C[C@@]4(N)[C@H](N(C)C)C(O)=C(C(N)=O)C(=O)[C@@]4(C#N)C(O)=C2C3=O)cc1 [GI] | ** (toxicities less than 25 μg/mL are represented by **)
CN(C)[C@@H]1C(O)=C(C(N)=O)C(=O)[C@@]2(C#N)C(O)=C3C(=O)c4c(O)cccc4[C@H](N)[C@@]3(N)[C@H]([S+](N)[O-])[C@@]12N (some centres unmarked) [BS] | ** (toxicities less than 25 μg/mL are represented by **)
CCCCc1ccc(O)c2c1C[C@@]1(N)C[C@@]3(N)[C@H](N(C)C)C(O)=C(C(N)=O)C(=O)[C@@]3(C#N)C(O)=C1C2=O [KY] | ** (toxicities less than 25 μg/mL are represented by **)
CN(C)[C@@H]1C(O)=C(C(N)=O)C(=O)[C@@]2(C#N)C(O)=C3C(=O)c4c(O)ccc(CNC(=O)OCC(C)(C)C)c4C[C@@]3(N)C[C@@]12N [NP] | ** (toxicities less than 25 μg/mL are represented by **)
CN(C)[C@@H]1C(O)=C(C(N)=O)C(=O)[C@@]2(C#N)C(O)=C3C(=O)c4c(O)cccc4/C(=C\c4ccc(F)cc4)[C@@]3(N)[C@H](O)[C@@]12N [DS] | ** (toxicities less than 25 μg/mL are represented by **)
CCSC(=O)/C=C/c1ccc2c(c1O)C(=O)C1=C(O)[C@]3(C#N)C(=O)C(C(N)=O)=C(O)[C@@H](N(C)C)[C@]3(N)[C@@H](O)[C@]1(N)[C@H]2O [AT] | ** (toxicities less than 25 μg/mL are represented by **)
CN(C)[C@@H]1C(O)=C(C(N)=O)C(=O)[C@@]2(C#N)C(O)=C3C(=O)c4c(ccc(CNC(=O)c5ccccc5)c4O)C[C@@]3(N)C[C@@]12N [RW] | * (toxicities greater than >25 μg/ml are represented by *)
CN(C)[C@@H]1C(O)=C(C(N)=O)C(=O)[C@@]2(C#N)C(O)=C3C(=O)c4c(O)ccc(-c5ccc(NC(=O)OC(C)(C)C)cc5)c4C[C@@]3(N)C[C@@]12N [PF] | ** (toxicities less than 25 μg/mL are represented by **)
CN(C)[C@@H]1C(O)=C(C(N)=O)C(=O)[C@@]2(C#N)C(O)=C3C(=O)c4c(O)c(-c5ccc6c(c5)OCO6)cc(-c5ccc6c(c5)OCO6)c4C[C@@]3(N)C[C@@]12N [LP] | ** (toxicities less than 25 μg/mL are represented by **)
CCOc1ccc(/C=C2\c3cccc(O)c3C(=O)C3=C(O)[C@]4(C#N)C(=O)C(C(N)=O)=C(O)[C@@H](N(C)C)[C@]4(N)[C@@H](O)[C@@]32N)cc1 [DF] | ** (toxicities less than 25 μg/mL are represented by **)
CCCCOCCCNCc1ccc(OC)c(-c2ccc(O)c3c2C[C@@]2(N)C[C@@]4(N)[C@H](N(C)C)C(O)=C(C(N)=O)C(=O)[C@@]4(C#N)C(O)=C2C3=O)c1 [NL] | * (toxicities greater than >25 μg/ml are represented by *)
COC(=O)/C=C/c1ccc2c(c1O)C(=O)C1=C(O)[C@]3(C#N)C(=O)C(C(N)=O)=C(O)[C@@H](N(C)C)[C@]3(N)[C@@H](O)[C@]1(N)C2N (some centres unmarked) [AW] | ** (toxicities less than 25 μg/mL are represented by **)
CN(C)c1cc(NCc2ccc(O)c(O)c2)c(O)c2c1C[C@@]1(N)C[C@@]3(N)[C@H](N(C)C)C(O)=C(C(N)=O)C(=O)[C@@]3(C#N)C(O)=C1C2=O [TY] | * (toxicities greater than >25 μg/ml are represented by *)
CN(C)[C@@H]1C(O)=C(C(N)=O)C(=O)[C@@]2(C#N)C(O)=C3C(=O)c4c(O)ccc(-c5cccc(N)c5)c4C[C@@]3(N)C[C@@]12N [FC] | ** (toxicities less than 25 μg/mL are represented by **)
CN(C)c1cc(-c2cccc([N+](=O)O)c2)c(O)c2c1C[C@@]1(N)C[C@@]3(N)[C@H](N(C)C)C(O)=C(C(N)=O)C(=O)[C@@]3(C#N)C(O)=C1C2=O [EG] | ** (toxicities less than 25 μg/mL are represented by **)
CN(C)[C@@H]1C(O)=C(C(N)=O)C(=O)[C@@]2(C#N)C(O)=C3C(=O)c4c(ccc(-c5ccccc5)c4O)C(N)[C@@]3(N)[C@H](O)[C@@]12N (some centres unmarked) [AX] | ** (toxicities less than 25 μg/mL are represented by **)
CN(C)[C@@H]1C(O)=C(C(N)=O)C(=O)[C@@]2(C#N)C(O)=C3C(=O)c4c(O)ccc(C#CCCCCC#Cc5ccc(O)c6c5C[C@@]5(N)C[C@@]7(N)[C@H](N(C)C)C(O)=C(C(N)=O)C(=O)[C@@]7(C#N)C(O)=C5C6=O)c4C[C@@]3(N)C[C@@]12N [Compound NB, 1,8-Di-7-Sancyclinyl-1,8-Heptyne] | * (toxicities greater than >25 μg/ml are represented by *)
CN(C)[C@@H]1C(O)=C(C(N)=O)C(=O)[C@@]2(C#N)C(O)=C3C(=O)c4c(O)ccc(-c5ccc(NC(=O)CBr)cc5)c4C[C@@]3(N)C[C@@]12N [UV] | ** (toxicities less than 25 μg/mL are represented by **)
